This assay deals with osteoclast differentiation (co-culture of bone marrow cells and osteoblasts). The experiment in a line: Osteoclast differentiation via co-culture of bone marrow cells and osteoblasts, count of TRAP(+) MNCs. It counts as cell-based, mice. Particulars: individual treatment, 7 days culture; for relative number of TRAP(+) MNCs (mature osteoclasts with 6 or more nuclei), control group = 100%: n=4. Here is the method:
The osteoclast differentiation was induced by co-culture system between bone marrow cells and […] inhibitory effect of the drug on osteoclast differentiation was evaluated by treatment of single or combination formulation. […] Cells were removed from the bone marrow cells, followed by centrifugation. After the bone marrow cells were suspended in α-MEM medium supplemented with 10% FBS, and the numbers of the eukaryotic cells in the harvested bone marrow cells were counted and then immediately used for a co-culture system. The mouse calvaria were aseptically isolated from 1 2 day-old neonatal ICR mice, and the […], primary osteoblasts were isolated by sequential treatment with an enzyme solution of 0.2% collagenase. The isolated […] centrifuged, resuspended with α-MEM containing 10% FBS and cultured until confluent. Then, these cells were diluted to a desired cell number, and used for the experiment. The bone marrow cells (1×10^5 cells/well) and osteoblasts (3,000 cells/well) prepared in the above were plated in a 96-well plate using α-MEM medium supplemented with 10% FBS. At this time, differentiation factors, 1α,25-dihydroxyvitamin D3 (10^-8 M, hereinbelow, referred to as vitamin D3) and dexamethasone (10^-8 M), were co-added to the osteoclastic medium. The medium was replaced with fresh media containing the differentiation factors every 2 to 3 days. After 7 days, when multinucleated osteoclasts were observed, the medium was removed from the wells, and then the cells were fixed with PBS containing 10% formalin. An index of osteoclast formation was determined by counting number of Tartrate-Resistant Acid Phosphatase-positive multinucleated osteoclasts (herein below, referred to as TRAP(+) MNCs). The TRAP staining solution was contained naphtol AS-MX phosphate(pH5.0)as a substrate, Fast Red violet LB as a coloring agent and 50 mM tartaric acid and stored at a refrigerator until use. The number of TRAP(+) MNCs containing more than 6-7 or more nuclei were counted under a microscope. […] All experiments were performed using the osteoclastic media containing vitamin D3 and dexamethasone. […] Sodium alendronate hydrate was dissolved in purified water at a concentration of 0.2 mM, and then diluted 1,000 fold with the osteoclastic media to a final concentration of 0.2 μM. In this connection, a control group was maintained in 0.1% DMSO. Each experiment was performed by individual or combination treatment, as follows. […] The number of TRAP(+) MNCs with 6 or more nuclei were counted under a microscope. The results were expressed as a percentage of the relative number of mature osteoclast observed in each experimental group, when the number of mature osteoclast in the control group (solvent only) was regarded as 100%. […]

For the compound `NCCCC(O)(P(=O)(O)O)P(=O)(O)O` [sodium alendronate, reference compound], under “0.2 μM”, the “relative number of TRAP(+) MNCs (mature osteoclasts with 6 or more nuclei), control group = 100%” value is 80.6% and significantly reduced.
`CS(=O)(=O)O.CS(=O)(=O)O.Cc1nc(-c2ccc(OCCCCCOc3ccc(C(=N)NO)cc3)cc2)c(C(C)C)s1` [N-hydroxy-4-{5-[4-(5-isopropyl-2-methyl-1,3-thiazol-4-yl)phenoxy]pentoxy}benzamidine dimethanesulfonate]: the “relative number of TRAP(+) MNCs (mature osteoclasts with 6 or more nuclei), control group = 100%” value (0.1 μM) is reported as “significant reduction”. Further, the “relative number of osteoclast, control group = 100%” value (0.3 μM) worked out at 52.4% and the “relative number of osteoclast, control group = 100%” value (0.5 μM) is 34.5%.
